The record followed here is US10961192B2, “(R)-4-hydroxy-2-oxo-1-pyrrolidineacetamide crystal form, preparation method therefor, and application thereof” (CHONGQING RUZER PHARMACEUTICAL COMPANY LIMITED, priority 2017, dated 2021).

Format in all cases: physicochemical
Data set [1] can be described thus: Stability test under high temperature conditions (60° C., 5 days), related substance. The conditions noted are these: for Day 0: Related substance / Day 5: Related substance / Related material changes: 60° C.; for Day 0: Related substance: day 0, average of 5 groups; for Day 5: Related substance: day 5, average of 5 groups; for Related material changes: day 5 versus day 0; for changes of the related substances in 5 days: high temperature of 60° C. On the procedure: Stability test of the crystalline form I of (R)-4-hydroxy-2-oxo-1-pyrrolidineacetamideunder high temperature conditions. The crystalline form I of (R)-4-hydroxy-2-oxo-1-pyrrolidinylacetamide prepared in Examples 1 and 3-7 was placed in a flat weighing bottle and spread into thin layers of <5 mm thick, sealed in a clean container respectively and placed at 60° C. for 5 days; samples were taken and detected on day 0 and day 5, respectively.

A further data set is described as follows: Clarity of solution. The following applies: average of 5 groups. On the procedure: (§1) In this test, the angle of repose of the crystalline form I of (R)-4-hydroxy-2-oxo-1-pyrrolidineacetamide prepared by the methods of Examples 1 and 3-7 was measured by an injection method (fixed funnel method). The samples to be tested were poured into the funnel, and they were gently and evenly dropped into the center of the disc to form a cone, when the materials fell freely from the oblique edge of the powder along the edge of the disc, the feedings were stopped, and the angles of repose were determined by the protractor; the sample traits and the clarity of the solution were examined, each example was tested for 5 groups and the average was obtained, the results are as follows: […]

The nature of data set [2]: Angle of repose by injection method (fixed funnel method). The conditions noted are these: average of 5 groups. On the procedure: as §1
The nature of another data set: Solubility in water.

With `NC(=O)CN1C[C@H](O)CC1=O` [Example 5, (R)-4-hydroxy-2-oxo-1-pyrrolidineacetamide], in data set [1], the “Day 0: Related substance” value was 0.25%, the “Day 5: Related substance” value worked out at 0.37% and the Related material changes came out at 0.12%. For the same molecule, in “Clarity of solution”, the clarity of solution entry is reported as “clarification”. This molecule also registered an angle of repose in data set [2] of 27.8 °.
Taken in the same sequence, the figures for `NC(=O)CN1C[C@H](O)CC1=O` [Example 1, (R)-4-hydroxy-2-oxo-1-pyrrolidineacetamide] were 0.23%, 0.35%, 0.12%, “clarification” and 28 °.
Taken in the same sequence, the figures for `NC(=O)CN1C[C@H](O)CC1=O` [Example 6, (R)-4-hydroxy-2-oxo-1-pyrrolidineacetamide] were 0.26%, 0.37%, 0.11%, “clarification” and 27.8 °.
With `NC(=O)CN1C[C@H](O)CC1=O` [Example 4, (R)-4-hydroxy-2-oxo-1-pyrrolidineacetamide], in data set [1], the “Day 0: Related substance” value stood at 0.26%, the “Day 5: Related substance” value is on record as 0.39% and the Related material changes came to 0.13%. Also, the clarity of solution entry in the data set “Clarity of solution” is “clarification”. In data set [2], the angle of repose was 28.5 °.
The corresponding values for `NC(=O)CN1C[C@H](O)CC1=O` [Example 7, (R)-4-hydroxy-2-oxo-1-pyrrolidineacetamide] are 0.22%, 0.33%, 0.11%, “clarification” and 28 °.
The corresponding values for `NC(=O)CN1C[C@H](O)CC1=O` [Example 3, (R)-4-hydroxy-2-oxo-1-pyrrolidineacetamide] are 0.22%, 0.36%, 0.14%, “clarification” and 28.3 °.
As for `NC(=O)CN1C[C@H](O)CC1=O` [(R)-4-hydroxy-2-oxo-1-pyrrolidineacetamide], the “changes of the related substances in 5 days” value in data set [1] is reported as “less than 0.15%”; in data set [1] (listed as crystalline form of (R)-4-hydroxy-2-oxo-1-pyrrolidineacetamide), “tiny”. In addition, in the data set “Solubility in water”, the solubility is at least 100 mg/mL.
